In patent US11820726B2, “Motuporamine derivatives as antimicrobial agents and antibiotic enhancers against resistant gram-negative bacteria” (University of Central Florida Research Foundation, Inc., priority 2017, dated 2023):

Experiments:
bacterial membrane = conditions: cited from earlier work
[1] = test system: E. aerogenes EA289, P. aeruginosa PAO1, and K. pneumoniae KPC2-ST258; assay: Determination of antibiotic MIC in the presence of compounds (restoring enhancer concentration); format: cell-based
Experimental: Determination of antibiotic MIC in the presence of compounds: Briefly, restoring enhancer concentrations were determined with an inoculum of 5×10^5 colony forming unit (CFU) in MH broth (200 μL) containing twofold serial dilutions of each derivative and antibiotic (chloramphenicol, doxycycline, cefepime, or erythromycin; 2 μg/mL). […] Measurements were repeated in triplicate.

[2] = test system: S. aureus RN4220, P. aeruginosa PAO1 and E. coli ANSI; conditions: cited from earlier work; for antibacterial activity: unsubstituted diamines; for activity against S. aureus RN4220, P. aeruginosa PAO1 and E. coli ANSI: higher polyamines
P. aeruginosa PAO1 = assay: MIC of doxycycline against P. aeruginosa PAO1; format: cell-based; conditions: Pseudomonas aeruginosa
Experimental: Antibiotics: All the antibiotics were purchased from Sigma-Aldrich except for doxycycline which was purchased from TCI Europe (Zwijndrecht, Belgium). All antibiotics were dissolved in water. The susceptibility of bacterial strains to antibiotics and compounds was determined in microplates by the standard broth dilution method, according to the recommendations of the Comité de l'AntibioGramme de la Société Française de Microbiologie (CA-SFM).^[36] Briefly, MICs were determined with an inoculum of 10^5 CFU in of MH broth (200 μL) containing twofold serial dilutions of each drug. […] Measurements were repeated in triplicate.

[3] = test system: Staphylococcus aureus ATCC25923; assay: ATP release (membrane disruption) in S. aureus; format: cell-based; conditions: ATP release for 1 min, 100 μg/mL
Experimental: Measurement of ATP efflux: Squalamine were prepared in doubly distilled water at different concentrations. A suspension of growing S. aureus or E. aerogenes (EA289) in MH broth was incubated at 37° C. The suspension (90 μL) was added to squalamine solution (10 μL, synthesized in lab according to reported procedures), and the mixture was vortexed for Is. Luciferin-luciferase reagent (Yelen, France; 50 μL) was immediately added, and luminescence was quantified with an Infinite M200 microplate reader (Tecan) for 5 s. ATP concentration was quantified by addition of a known amount of ATP (1 μM).

E. aerogenes EA289 = assay: Nitrocefin hydrolysis assay (outer membrane permeabilization); format: cell-based, Enterobacter aerogenes; conditions: 5b even at 3.9 μM, compared to spermine-treated or untreated control
Experimental: Nitrocefin hydrolysis assay: Outer membrane permeabilization was measured by using nitrocefin, a chromogenic substrate of periplasmic β-lactamase. MH broth (10 mL) was inoculated with of an overnight culture (0.1 mL) of EA289 and grown at 37° C. to OD600=0.5. The remaining steps were performed at room temperature. Cells were recovered by centrifugation (3600 G, 20 min) and washed once with potassium phosphate buffer (PPB) (20 mM, pH 7.2) containing MgCl2 (1 mM). After another centrifugation, the pellet was resuspended in PPB (100 μL) and adjusted to OD600=0.5. Then, either Polymyxin B (positive control; Sigma-Aldrich) or 5b (50 μL) was added to the cell suspension (100 gm/L) to final concentrations of 0.98-500 μM “2.5, 15, 62.5, and 125 μM”. Nitrocefin (50 μL, 50 μg/mL; Oxoid) was added, and its hydrolysis was monitored spectrophotometrically by measuring the increase in absorbance at 490 nm. Assays were performed in 96-well plates with an M200 Pro spectrophotometer (Tecan).

In the case of `S=C(NCCCNCCCCCNCCCNC(=S)NCC(c1ccccc1)c1ccccc1)NCC(c1ccccc1)c1ccccc1` [1,13-bis (((2,2-diphenyl)-1-ethyl)thioureido)-4,10-diazatridecane], the cytoplasmic membrane depolarization (bacterial membrane) is listed as “depolarize the cytoplasmic membrane”.

In the case of `Cl.Cl.NCCCCNCc1c2ccccc2cc2ccccc12` [7b], the “synergy with chloramphenicol and erythromycin” value ([1]; antibiotic 2 μg/mL, PAO1, EA289 and KPC2-ST258) is reported as “weak or no activity” and the “restoration of doxycycline activity” value ([1]; doxycycline 2 μg/mL, derivative even at 40 μM) is reported as “no improvement”.

In the case of `NCCCCCN` [cadaverine], the membrane rupture (bacterial membrane) is listed as “did not cause membrane rupture” and the antibacterial activity [2] is listed as “no antibacterial activity”.

For `C[C@H]1c2cccc(O)c2C(=O)C2=C(O)[C@]3(O)C(=O)C(C(N)=O)=C(O)[C@@H](N(C)C)[C@@H]3[C@@H](O)[C@@H]21` [doxycycline], the MIC (P. aeruginosa PAO1) was 16 µg/mL.

For `NCCCCN` [putrescine], the membrane rupture (bacterial membrane) is given as “did not cause membrane rupture” and the antibacterial activity [2] is given as “no antibacterial activity”.

In the case of `NCCCCNCCCN` [spermidine], the “activity against S. aureus RN4220, P. aeruginosa PAO1 and E. coli ANSI” value [2] is listed as “inactive”.

For `NCCCNCCCCNCCCN` [spermine], the “activity against S. aureus RN4220, P. aeruginosa PAO1 and E. coli ANSI” value [2] is given as “inactive” and the “ATP release (disruption of the bacterial membrane)” value [3] is given as “no significant effect”.

For `CC(C)[C@@H](CC[C@@H](C)[C@H]1CC[C@H]2[C@@H]3[C@H](O)C[C@H]4C[C@@H](NCCCNCCCCN)CC[C@]4(C)[C@H]3CC[C@]12C)OS(=O)(=O)O` [squalamine], the “ATP release (disruption of the bacterial membrane)” value [3] was “dramatic disruption of the bacterial membrane”.

For polymyxin-B, the “rate of nitrocefin hydrolysis” value (E. aerogenes EA289) was “increase in nitrocefin hydrolysis”.
